Source: PMC7765401, “Antiproliferative and Antiangiogenic Properties of New VEGFR-2-targeting 2-thioxobenzo[g]quinazoline Derivatives (In Vitro)” (Molecules, 2020)
“And” between values parts separate entries of the source, which are not always exact repeats. Identical values can stand only once. Like-named read-outs stand apart in the source and are kept apart here.

What was measured:
[1] = test system: HepG2 human cancer-cell line; test: MTT antiproliferative assay, HepG2; type: cell-based
Description: (§1) Selected compounds were evaluated in vitro for their antiproliferative activities against HepG2 and MCF-7 human cancer-cell lines using MTT assays. Cell viabilities and IC50 values were obtained and compared with those of the control, doxorubicin (Table 1).
(§2) The antiproliferative activity of the test compounds against HepG2, and MCF-7 human cancer-cell lines were evaluated by MTT assay. The detailed methodology procedure was reported. […]

[2] = test system: MCF-7 human cancer-cell line; test: MTT antiproliferative assay, MCF-7; type: cell-based
Description: as §1, §2

[3] = test system: MCF-7 cells; test: Cell-cycle analysis by flow cytometry (PI), MCF-7; type: cell-based, human; details: MCF-7, 48 h at the IC50 of the compound
Description: (§3) To investigate whether the tested compounds could arrest HepG2 and MCF-7 mitotic cell division, cell distributions at cell-cycle phases were analyzed by flow cytometry following their treatment with the vehicle or the indicated compound at its IC50 concentration. Cells and samples were prepared as previously reported, and a PI (ab139418) Flow Cytometry Kit (Abcam, Cambridge, UK) was used in accordance with the manufacturer’s protocol. In brief, both HepG2 and MCF-7 cells were separate, plated into six-well plates at a density of 0.6 × 10^6 cells/well in DMEM growth medium supplemented with 10% FBS. Cells were incubated for 24 h at 37 °C and 5% CO2 prior to exposure to either the vehicle (DMSO) as the control or 13, 14, or 15, at their IC50 concentrations. […] All cells were incubated for 48 h, washed with cold PBS after being harvested to single-cell suspensions by trypsinization, and fixed with 70% ethanol. The fixed cells were rehydrated in PBS prior to being lysed in a prepared solution of PI, Triton X-100, and RNase. Finally, the cells were kept at 37 °C for 15 min and analyzed using a FACS Caliber flow cytometer (BD Biosciences and Co., Franklin Lakes, NJ, USA).

[4] = test system: MCF-7 cells; test: Apoptosis by annexin-V FITC/PI double staining, MCF-7; type: cell-based, human; details: MCF-7, 48 h at the IC50 of the compound
Description: (§4) Apoptosis was detected for both HepG2 and MCF-7cells using the same preparation and sample treatment conditions as those used for cell-cycle analysis. The manufacturer’s instructions for the annexin-V FITC apoptosis detection kit (K101, Biovision, Milpitas, CA, USA) were followed. In brief, treated cells were detached after 48 h by trypsinization, washed twice with cold PBS, and stained with 5 μL of annexin-V fluorescein isothiocyanate (annexin-V FITC) and 5 μL of PI in the binding buffer for 15 min at 37 °C. Finally, the processed cells were analyzed using a FACS Caliber flow cytometer (BD Biosciences and Co., Franklin Lakes, NJ, USA).

[5] = biological target: T1, VEGFR-2 (KDR) (Homo sapiens, UniProt P35968); test: In vitro inhibition of VEGFR-2 (KDR) kinase assay kit; type: biochemical; details: for Fold Relative to Sorafenib: VEGFR-2 IC50 relative to sorafenib; for IC50: luminescence kinase kit, 0.0–10.0 μM range, read-out: IC50 nM, VEGFR-2 enzyme
T1 construct: purchased Cat. #40325
T1 sequence (P35968 20-1356): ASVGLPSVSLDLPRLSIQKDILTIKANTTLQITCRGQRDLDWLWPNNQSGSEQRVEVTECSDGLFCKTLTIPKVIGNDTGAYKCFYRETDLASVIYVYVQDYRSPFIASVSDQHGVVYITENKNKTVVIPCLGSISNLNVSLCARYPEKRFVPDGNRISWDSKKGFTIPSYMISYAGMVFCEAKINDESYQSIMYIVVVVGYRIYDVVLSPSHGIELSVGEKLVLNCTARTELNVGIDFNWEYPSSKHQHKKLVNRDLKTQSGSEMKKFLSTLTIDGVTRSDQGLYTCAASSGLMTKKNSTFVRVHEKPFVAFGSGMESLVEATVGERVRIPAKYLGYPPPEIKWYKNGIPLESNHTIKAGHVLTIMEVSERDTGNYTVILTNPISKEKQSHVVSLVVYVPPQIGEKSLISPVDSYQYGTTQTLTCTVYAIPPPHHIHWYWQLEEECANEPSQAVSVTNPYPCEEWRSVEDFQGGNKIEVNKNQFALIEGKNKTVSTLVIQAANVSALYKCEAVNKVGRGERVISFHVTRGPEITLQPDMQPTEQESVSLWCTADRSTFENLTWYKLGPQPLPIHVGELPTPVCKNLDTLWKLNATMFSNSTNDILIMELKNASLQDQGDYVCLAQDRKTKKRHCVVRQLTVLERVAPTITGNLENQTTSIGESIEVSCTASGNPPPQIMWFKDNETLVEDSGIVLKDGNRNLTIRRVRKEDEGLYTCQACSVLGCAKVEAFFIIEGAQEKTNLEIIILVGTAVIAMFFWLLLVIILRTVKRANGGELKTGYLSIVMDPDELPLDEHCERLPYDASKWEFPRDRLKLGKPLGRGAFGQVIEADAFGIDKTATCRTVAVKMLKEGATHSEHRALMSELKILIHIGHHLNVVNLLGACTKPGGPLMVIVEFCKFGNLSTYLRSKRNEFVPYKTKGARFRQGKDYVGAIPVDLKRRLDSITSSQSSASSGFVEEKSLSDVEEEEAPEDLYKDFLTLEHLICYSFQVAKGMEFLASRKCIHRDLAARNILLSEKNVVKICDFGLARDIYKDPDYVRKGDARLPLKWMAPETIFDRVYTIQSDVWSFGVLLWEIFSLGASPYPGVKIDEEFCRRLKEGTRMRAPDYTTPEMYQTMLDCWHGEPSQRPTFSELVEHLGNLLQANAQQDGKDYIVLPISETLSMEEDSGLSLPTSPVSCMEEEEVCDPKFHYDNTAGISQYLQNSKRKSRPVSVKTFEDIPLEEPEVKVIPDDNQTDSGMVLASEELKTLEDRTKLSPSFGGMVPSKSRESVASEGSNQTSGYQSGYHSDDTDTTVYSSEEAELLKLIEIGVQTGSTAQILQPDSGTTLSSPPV
Description: At the indicated end of the experiment, the luminescence was measured by a Tecan spark microplate reader.

[6] = test system: HepG2 cells; test: Cell-cycle analysis by flow cytometry (PI), HepG2; type: cell-based, human; details: HepG2, 48 h at the IC50 of the compound
Description: as §3

[7] = test system: HepG2 cells; test: Apoptosis by annexin-V FITC/PI double staining, HepG2; type: cell-based, human; details: HepG2, 48 h at the IC50 of the compound
Description: as §4

[8] = MTT, 48 h of exposure, read-out: IC50 (μM) ± SD HepG2
[9] = Table S5, read-out: pIC50(exp) HepG2 (converted)
[10] = MCF7, MTT, 48 h of exposure, read-out: IC50 (μM) ± SD MCF-7
[11] = MCF7, Table S5, read-out: pIC50 (exp) MCF7 (converted)

SMILES	IC50 [1, 8]	IC50 [1, 9]	IC50 [2, 10]	IC50 [2, 11]	Cell Cycle Distribution %G0/G1 [3]	Cell Cycle Distribution %G2/M [3]	Cell Cycle Distribution %S [3]	Apoptosis Early [4]	Apoptosis Late [4]	Apoptosis Total [4]	Necrosis [4]	Fold Relative to Sorafenib [5]	IC50 [5]	melting point	Cell Cycle Distribution %G0/G1 [6]	Cell Cycle Distribution %G2/M [6]	Cell Cycle Distribution %S [6]	Apoptosis Early [7]	Apoptosis Late [7]	Apoptosis Total [7]	other results
CCn1c(SCc2ccccc2)nc2cc3ccccc3cc2c1=O [Compound 10, 2-(Benzylthio)-3-ethylbenzo[g]quinazolin-4(3H)-one]	36.2 ± 3.5 µM	36.2 µM	8.8 ± 0.5 µM	8.79 µM	39.28%	34.6% and 34.55%	26.17%	4.64%	17.03%	21.67%	9.61%	4.5 fold	134 ± 8.2 nM	132 to 134 °C	–	–	–	–	–	–	–
CCn1c(SCc2cccc(C#N)c2)nc2cc3ccccc3cc2c1=O [Compound 11, 3-(((3-Ethyl-4-oxo-3,4-dihydrobenzo[g]quinazolin-2-yl)thio)methyl)benzonitrile]	34.2 ± 2.9 µM	34.2 µM	10.6 ± 1.1 µM	10.6 µM	–	–	–	–	–	–	–	–	–	140 to 142 °C	–	–	–	–	–	–	–
CCn1c(SCc2cccc(C)c2)nc2cc3ccccc3cc2c1=O [Compound 12, 3-Ethyl-2-((3-methylbenzyl)thio)benzo[g]quinazolin-4(3H)-one]	30.7 ± 3.1 µM	30.7 µM	11.2 ± 0.9 µM	11.2 µM	–	–	–	–	–	–	–	–	–	186 to 188 °C	–	–	–	–	–	–	–
CCn1c(SCc2cccc(OC)c2)nc2cc3ccccc3cc2c1=O [Compound 13, 3-Ethyl-2-((3-methoxybenzyl)thio)benzo[g]quinazolin-4(3H)-one]	27.5 ± 2.1 µM	27.5 µM	10.1 ± 1.1 µM	10.1 µM	–	4.36%	33.25%	7.28%	14.94%	22.22%	15% and 15.31%	1.5 fold	46.6 ± 2.8 nM	–	38.22%	6.52%	55.3% and 55.26%	2.82%	18.56%	21.38%	Necrosis [7]: 5.74%
CCn1c(SCCN2CCCCC2)nc2cc3ccccc3cc2c1=O [Compound 14, 3-Ethyl-2-((2-(piperidin-1-yl)ethyl)thio)benzo[g]quinazolin-4(3H)-one]	27.7 ± 2.5 µM	27.7 µM	9.6 ± 0.5 µM	9.6 µM	66.24%	6.58%	27.18%	5.08%	25.68%	30.76%	11.75%	2.0 fold	63 ± 3.9 nM	190 to 192 °C	38.66%	9.03%	52.3% and 52.31%	2.97%	13.42%	16.39%	Necrosis [7]: 6.33%
CCn1c(SCCCN2C(=O)c3ccccc3C2=O)nc2cc3ccccc3cc2c1=O [Compound 15, 2-(3-((3-Ethyl-4-oxo-3,4-dihydrobenzo[g]quinazolin-2-yl)thio)propyl)isoindoline-1,3-dione]	26 ± 2.5 µM	28 µM	9.4 ± 0.7 µM	9.4 µM	43.25%	28.0% and 28.03%	28.72%	5.57%	19.73%	25.3%	8.14%	1.4 fold	44.4 ± 2.6 nM	–	31.15%	39.2% and 39.24%	29.61%	3.44%	14.4%	17.84%	Necrosis [7]: 6.27%
